From US9642858B2, “Use of resazurin, or analogs thereof, for antibacterial therapy” (priority 2012, dated 2017)
In brackets after ≈: the same amount, converted by molar mass. Entries after “also recorded” stand apart in the source; their conditions may differ.

Key:
F. novicida = type: cell-based, Francisella novicida
[1] = system: type A F. tularensis (Schu S4); type: cell-based, Francisella tularensis; details: 44 μM
[2] = system: F. tularensis LVS in primary human macrophages; type: cell-based, Francisella tularensis
[3] = system: F. tularensis LVS in HEK-293 cells; type: cell-based, Francisella tularensis
[4] = system: primary human macrophages; assay: Viability of infected macrophages treated with resazurin (visible reduction of resazurin to resorufin)
Pseudomonas aeruginosa = type: cell-based; details: 44 μM
N. sicca = type: cell-based, Neisseria sicca
N. polysaccharea = type: cell-based, Neisseria polysaccharea
N. gonorrhoeae = type: cell-based, Neisseria gonorrhoeae; details: 44 μM
Escherichia coli = type: cell-based; details: 44 μM
F. tularensis LVS = assay: microbe, parasite or virus in culture; type: cell-based, Francisella tularensis

SMILES: O=c1ccc2[n+]([O-])c3ccc(O)cc3oc-2c1 [resazurin, 7-Hydroxy-3H-phenoxazin-3-one 10-oxide]
- bactericidal activity (F. novicida): bactericidal
- bactericidal effect on chocolate II agar [1]: potent bactericidal effect
- intracellular growth / bacterial burden [2]: inhibited intracellular growth; also recorded: reduces bacterial burden
- viable intracellular bacteria [2]: substantial decrease in viable bacteria
- intracellular growth / bacterial burden [3]: inhibited intracellular growth; also recorded: reduces bacterial burden
- viable intracellular bacteria compared to the control [3]: substantial decrease in viable bacteria
- viability of macrophages (toxicity) [4]: still viable
- bacterial viability / antimicrobial effect (Pseudomonas aeruginosa): does not have an antimicrobial effect; also recorded: no effect on bacterial viability
- bactericidal activity (N. sicca): bactericidal
- bactericidal activity (N. polysaccharea): bactericidal
- bactericidal effect on chocolate II agar (N. gonorrhoeae): potent bactericidal effect
- bacterial viability / antimicrobial effect (Escherichia coli): does not have an antimicrobial effect; also recorded: no effect on bacterial viability
- F. tularensis growth (F. tularensis LVS): growth is inhibited
- antibacterial activity (viable bacteria per ml) (F. tularensis LVS): have antibacterial activity
- antimicrobial activity, effect of medium (F. tularensis LVS): not affected by the choice of medium
- bacterial viability over time (F. tularensis LVS): significant decline in viable bacteria
- bactericidal activity to F. tularensis (F. tularensis LVS): bactericidal
- reduction in viable F. tularensis LVS bacteria compared to growth medium alone (F. tularensis LVS): ~10 fold
- viable bacteria (F. tularensis LVS): decrease in viable bacteria
- MIC (F. tularensis LVS; Francisella tularensis, read-out: minimal inhibitory concentration against F. tularensis): 4.4 µM (≈ 1.01 µg/mL)

SMILES: O=c1ccc2nc3ccc(O)cc3oc-2c1 [resorufin]
- antibacterial activity (viable bacteria per ml) (F. tularensis LVS): have antibacterial activity
- antimicrobial effect on F. tularensis LVS viability (CFU) relative to resazurin (F. tularensis LVS): equivalently potent antimicrobial effect
- bactericidal activity to F. tularensis (F. tularensis LVS): bactericidal
